Patent US11911406B2, “PH-responsive polymer-drug conjugates for enhanced antibacterial efficacy” (priority 2020, dated 2024)

What was measured:
[1] = system: HEK 293 human embryonic kidney cells; experiment: Cell viability test (MTT cytotoxicity); assay type: cell-based; conditions: 48 h, row marked pH 7.4
Procedure: Cell viability test. Cytotoxicity of different components was tested through MTT assays. HEK 293 human embryonic kidney cells were seeded onto a 96-well plate (1×10^4 cells/well) and cultured overnight. The cells were then treated with various polymers or PDCs with serial dilutions for 48 h and their viability was measured by a standard MTT assay. Data were collected by monitoring the difference between the absorbance at 560 nm and 650 nm using a GloMax-Multi Microplate Multimode Reader (Promega, Wis., USA).

E. coli ATCC 25922 [2] = experiment: Live/Dead bacterial staining assay (AO/EB); assay type: cell-based; conditions: 0.5 h and 3 h
Procedure: Live/Dead bacterial staining assay. Exponentially growing bacteria (E. coli ATCC 25922) were collected by centrifugation at 8000 rpm for 5 min, washed with saline and diluted to OD 600 value of 0.5. The bacterial suspensions were incubated with different treatments at 37° C. for 0.5 h and 3 h, and then washed with saline and stained by acridine orange (10 μg/mL) and ethidium bromide (EB, […]) solution for 15 min. Afterward, the bacteria were collected via centrifugation, washed with saline for 2 times, resuspended in 70% glycerol and spread on glass slides. The live/dead bacteria were observed by a confocal laser scanning microscope (CLSM).

[3] = Streptomycin release kinetics (dialysis, HPLC); assay type: physicochemical
Procedure: Streptomycin release kinetics. […] The bags were put into the PBS buffers with the corresponding pH, and incubated in a 37° C. shaker. At different time intervals, 100 μL sample outside the dialysis bag was collected for HPLC analysis.

[4] = system: E. coli, MRSA and P. aeruginosa; experiment: Scanning electron microscopy (SEM) observation; assay type: cell-based; conditions: pH 6.0, 3 h
Procedure: Scanning electron microscopy (SEM) observation. Bacteria suspensions were prepared as above and treated with PDC at different pH for 3 h, washed with saline and fixed with 2.5% glutaraldehyde at 4° C. overnight. The samples were washed with Milli-Q water and dehydrated with a series of graded ethanol solutions (50%, 75%, 90%, 100%, each for 5 min). After drying for 1 day, the samples were coated with platinum and observed by SEM (Zeiss/LEO 1530).

P. aeruginosa ATCC 27853 = experiment: Checkerboard assay, FIC index; assay type: cell-based
Procedure: (§1) Fractional inhibitory concentration (FIC) measurement. The synergy between the cationic polymer and streptomycin was assessed by checkerboard assays. The two antibacterial components were mixed in a 96-well plate with serial two-dimensional dilutions. Bacteria were inoculated in each well of the plate and their growth, reflected by the OD600 value, were monitored. The synergy effect was evaluated by calculating the FIC index according to the formula below:
(§2) [formula] MICA^Comb and MICB^Comb indicate the MICs of the two components in combination. The interactions between the two components are defined according to standard criteria of considering FIC≤0.5 as synergistic; 0.5<FIC≤1 as additive; 1<FIC≤4 as indifference; and FIC>4 as antagonism.

[5] = system: methicillin-resistant S. aureus (MRSA, ATCC 33591); experiment: Checkerboard assay, FIC index; assay type: cell-based
Procedure: as §1, §2

E. coli ATCC 25922 [6] = experiment: Checkerboard assay, FIC index; assay type: cell-based
Procedure: as §1, §2

M. smegmatis (MC^2 155) = experiment: MIC, broth microdilution; assay type: cell-based
Procedure: (§3) Bacterial strains. S. aureus Newman was kindly provided by Prof Douglas Weibel; E. coli ATCC25922, S. aureus ATCC 33591 and P. aeruginosa ATCC 27853 were kindly donated by Prof. David Andes. E. coli DH5a was purchased from Thermo Fisher. The bacteria above were grown in Mueller Hinton Broth (MHB) media (Criterion, Santa Maria, Calif., USA). M. smegmatis mc^2155 strain was kindly donated by Prof. Adel M. Talaat, and was grown in Middlebrook 7H9 broth (HiMedia, West Chester, Pa., USA).
(§4) Minimal inhibitory concentration (MIC) measurements. The MIC of the different treatments on various bacteria strains was determined using the broth microdilution method. Briefly, 100 μL of the respective broth media containing serial twofold dilutions of each compound was placed into a 96-well tissue culture plate. Each bacterial strain was taken from an exponentially growing culture and diluted to 5×10^6 CFU/mL. 10 μL of such microbial suspension was inoculated in each well of the plate, resulting in a final bacteria concentration of approximately 5×10^5 CFU/mL. The bacteria were cultured at 37° C. for 24 h and their growth were observed by reading the optical density (OD) at 600 nm. The MIC was determined as the treatment concentration at which no microbial growth was observed. Broth containing microbial cells alone was used as a positive control and broth without bacteria inoculation was used as a negative control. Each test was carried out in 3 replicates.

[7] = system: S. aureus (MRSA ATCC33591); experiment: MIC, broth microdilution; assay type: cell-based
Procedure: as §3, §4

E. coli (DH5 alpha) = experiment: MIC, broth microdilution; assay type: cell-based
Procedure: as §3, §4

E. coli (ATCC 25922) = experiment: MIC, broth microdilution; assay type: cell-based
Procedure: as §3, §4

S. aureus (Newman) = experiment: MIC, broth microdilution; assay type: cell-based
Procedure: as §3, §4

[8] = system: P. aeruginosa (ATCC 27853); experiment: MIC, broth microdilution; assay type: cell-based
Procedure: as §3, §4

[9] = system: MRSA in Raw 264.7 macrophage; experiment: Antibacterial activity for intracellular infection; assay type: cell-based; conditions: Raw 264.7 infected with S. aureus, pH 7.4 and 6.0, 1 day
Procedure: (§5) Antibacterial activity for intracellular infection. The antibacterial activity for intracellular infection was tested following the previous report. Briefly, macrophage Raw 264.7 cells were seeded in 96-well plate at a density of 1×10^4 cell/swell overnight and infected with MRSA or P. aeruginosa at a ratio of 10-20 bacteria per macrophage in FBS free RPMI 1640 medium. After 3 h incubation, the cells were washed and cultured in 1640 medium containing 10% FBS and 50 μg/mL gentamycin for one day to prevent the growth of extracellular bacteria. Then the macrophages were treated with free streptomycin or PDC for another day and lysed with Milli-Q water supplemented with 0.1% Triton-X. The cell lysates were serially diluted and the CFU in each well was determined by plating on MHB agar plates.

[10] = system: P. aeruginosa in Raw 264.7 macrophage; experiment: Antibacterial activity for intracellular infection; assay type: cell-based; conditions: Raw 264.7 infected with P. aeruginosa, pH 7.4 and 6.0, 1 day
Procedure: as §5

In the case of “Hex-Cys-Cys-DET-strep-DMA [Neutralized PDC]”, the “HEK293 IC50” value [1] is reported as over 2000 µg/mL, the “bactericidal effect / EB staining, in words” value (E. coli ATCC 25922 [2]) is reported as “much delayed and pH-dependent bactericidal effect” and the streptomycin release ([3]; pH 6.0, within 48 h) is reported as “about 70%”. For the same substance, the streptomycin release ([3]; pH 7.4, at 48 h) was “about 20%”, the “bacterial membrane morphology (SEM), in words” value [4] was “severe membrane disruption and deformation” and the “FICI of the two components in the PDC (tethered together)” value (from here on “FICI of the two components in the PDC”) (P. aeruginosa ATCC 27853) was 0.306. The “FICI of the two components in the PDC” value [5] was 0.475, the “FICI of the two components in the PDC” value (E. coli ATCC 25922 [6]) was 0.362 and the “MIC M. smegmatis (MC^2 155)” value (M. smegmatis (MC^2 155); pH 6.0) was 2.5 µg/mL. For the same substance, the “MIC M. smegmatis (MC^2 155)” value (M. smegmatis (MC^2 155); pH 7.4) was 20 µg/mL, the “MIC S. aureus (MRSA ATCC33591)” value ([7]; pH 6.0) was 40 µg/mL and the “MIC S. aureus (MRSA ATCC33591)” value ([7]; pH 7.4) was 160 µg/mL. The “MIC E. coli (DH5 alpha)” value (E. coli (DH5 alpha); pH 6.0) was 20 µg/mL, the “MIC E. coli (DH5 alpha)” value (E. coli (DH5 alpha); pH 7.4) was 80 µg/mL and the “MIC E. coli (ATCC 25922)” value (E. coli (ATCC 25922); pH 6.0) was 20 µg/mL. The “MIC E. coli (ATCC 25922)” value (E. coli (ATCC 25922); pH 7.4) was 80 µg/mL, the “MIC S. aureus (Newman)” value (S. aureus (Newman); pH 6.0) was 20 µg/mL and the “MIC S. aureus (Newman)” value (S. aureus (Newman); pH 7.4) was 80 µg/mL. For the same substance, the “MIC P. aeruginosa (ATCC 27853)” value ([8]; pH 6.0) was 40 µg/mL, the “MIC P. aeruginosa (ATCC 27853)” value ([8]; pH 7.4) was 160 µg/mL and the “antibacterial efficacy on intracellular bacteria (CFU), in words” value [9] was “enhanced the antibacterial efficacy”. The “antibacterial efficacy on intracellular bacteria (CFU), in words” value [10] was “enhanced the antibacterial efficacy”.
